Experimental data from PubChem BioAssay (NCI).
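Exposure lasted 48 hours, with cells grown in 96-well plates and compounds tested at five concentrations. At the GI50, growth is halved. TGI: total growth inhibition.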

Key:
Assay in all cases: NCI tumour cell line growth inhibition, 48 h
[1] = test system: SK-MEL-2 melanoma
[2] = test system: EKVX NSCLC
[3] = test system: NCI-H23 lung
[4] = test system: SK-MEL-5 melanoma
[5] = test system: UO-31 renal
[6] = test system: OVCAR-5 ovarian
[7] = test system: MDA-MB-435
[8] = test system: NCI-H226 lung
[9] = test system: MDA-MB-231 breast
[10] = test system: DU-145 prostate
[11] = test system: SNB-19 CNS
[12] = test system: NCI-H522 lung
[13] = test system: A549 NSCLC
[14] = test system: COLO 205 colon
[15] = test system: HCT-15 colon
[16] = test system: SW-620 colon
[17] = test system: UACC-62 melanoma
[18] = test system: SNB-75 CNS
[19] = test system: U251 CNS
[20] = test system: HT29 colon
[21] = test system: T-47D breast
[22] = test system: KM12 colon
[23] = test system: RPMI-8226 leukemia
[24] = test system: MDA-MB-468 breast
[25] = test system: HOP-62 NSCLC
[26] = test system: HL-60(TB) leukemia
[27] = test system: MCF7 breast
[28] = test system: HS 578T breast
[29] = test system: UACC-257 melanoma
[30] = test system: 786-0 renal
[31] = test system: OVCAR-4 ovarian
[32] = test system: CCRF-CEM leukemia
[33] = test system: OVCAR-8 ovarian
[34] = test system: SK-OV-3 ovarian
[35] = test system: SK-MEL-28 melanoma
[36] = test system: MOLT-4 leukemia
[37] = test system: LOX IMVI melanoma
[38] = test system: A498 renal
[39] = test system: RXF 393 renal
[40] = test system: SN12C renal
[41] = test system: K-562 leukemia
[42] = test system: BT-549 breast
[43] = test system: NCI-H460 lung
[44] = test system: HCC-2998 colon
[45] = test system: OVCAR-3 ovarian
[46] = test system: M14 melanoma
[47] = test system: HOP-92 NSCLC
[48] = test system: CAKI-1 renal
[49] = test system: TK-10 renal
[50] = test system: NCI/ADR-RES ovarian
[51] = test system: SR leukemia
[52] = test system: ACHN renal
[53] = test system: PC-3 prostate
[54] = test system: SF-268 CNS
[55] = test system: HCT-116 colon
[56] = test system: IGROV1 ovarian
[57] = test system: MALME-3M melanoma
[58] = test system: SF-539 CNS
[59] = test system: SF-295 CNS

With `Cc1cc2c(cc1Cl)C(=O)/C(=C/c1ccccc1)O2` the GI50 [1] was 20.6 µM, the TGI [1] was 72 µM and the GI50 [2] was 16.5 µM. The TGI [2] was 33.1 µM, the GI50 [3] was 15.4 µM and the TGI [3] was 44.8 µM. It also gave a GI50 [4] of 15.6 µM, a TGI [4] of 30.9 µM and a GI50 [5] of 13.9 µM. It also gave a TGI [5] of 26.8 µM, a GI50 [6] of 23.2 µM and a TGI [6] of over 100 µM. The GI50 [7] was 21.5 µM, the TGI [7] was 59.6 µM and the GI50 [8] was 12.8 µM. The TGI [8] was 31.5 µM, the GI50 [9] was 16.5 µM and the TGI [9] was 39.4 µM. It also gave a GI50 [10] of 16.9 µM, a TGI [10] of 33.7 µM and a GI50 [11] of 26.5 µM. The TGI [11] was over 100 µM, the GI50 [12] was 13 µM and the TGI [12] was 30.7 µM. For the same compound, the GI50 [13] was 16.6 µM, the TGI [13] was 37.8 µM and the GI50 [14] was 24.6 µM. For the same compound, the TGI [14] was 51.9 µM, the GI50 [15] was 14.2 µM and the TGI [15] was 85.4 µM. It also gave a GI50 [16] of 16.8 µM, a TGI [16] of 48.3 µM and a GI50 [17] of 15.9 µM. It also gave a TGI [17] of 49.9 µM, a GI50 [18] of 9.27 µM and a TGI [18] of 57.7 µM. For the same compound, the GI50 [19] was 13.1 µM, the TGI [19] was 28.7 µM and the GI50 [20] was 29 µM. For the same compound, the TGI [20] was over 100 µM, the GI50 [21] was 13.6 µM and the TGI [21] was 35.3 µM. It also gave a GI50 [22] of 31.3 µM, a TGI [22] of over 100 µM and a GI50 [23] of 22.4 µM. It also gave a TGI [23] of over 100 µM, a GI50 [24] of 13.2 µM and a TGI [24] of 40.5 µM. For the same compound, the GI50 [25] was 22.8 µM, the TGI [25] was 52.8 µM and the GI50 [26] was 22.3 µM. For the same compound, the TGI [26] was 46.7 µM, the GI50 [27] was 2.7 µM and the TGI [27] was 57.4 µM. It also gave a GI50 [28] of 29.2 µM, a TGI [28] of over 100 µM and a GI50 [29] of 23.4 µM. The TGI [29] was over 100 µM, the GI50 [30] was 20 µM and the TGI [30] was 40.5 µM. It also gave a GI50 [31] of 16.8 µM, a TGI [31] of 61.3 µM and a GI50 [32] of 18.7 µM. For the same compound, the TGI [32] was 49.2 µM, the GI50 [33] was 16.5 µM and the TGI [33] was 44.1 µM. The GI50 [34] was 62.3 µM, the TGI [34] was over 100 µM and the GI50 [35] was 23.7 µM. For the same compound, the TGI [35] was 76.3 µM, the GI50 [36] was 17.9 µM and the TGI [36] was 46 µM. The GI50 [37] was 1.9 µM, the TGI [37] was 4.19 µM and the GI50 [38] was 49.3 µM. The TGI [38] was over 100 µM, the GI50 [39] was 15 µM and the TGI [39] was 33.6 µM. The GI50 [40] was 13.9 µM, the TGI [40] was 33.1 µM and the GI50 [41] was 27.6 µM. The TGI [41] was over 100 µM, the GI50 [42] was 16.7 µM and the TGI [42] was 45.3 µM. The GI50 [43] was 16 µM, the TGI [43] was 35.6 µM and the GI50 [44] was 31.6 µM. The TGI [44] was over 100 µM, the GI50 [45] was 25.5 µM and the TGI [45] was 93.1 µM. The GI50 [46] was 26 µM, the TGI [46] was over 100 µM and the GI50 [47] was 17.7 µM. It also gave a TGI [47] of 44.6 µM, a GI50 [48] of 15.5 µM and a TGI [48] of 31.1 µM. The GI50 [49] was 23.5 µM, the TGI [49] was 40.6 µM and the GI50 [50] was 15.7 µM. For the same compound, the TGI [50] was 38.6 µM, the GI50 [51] was 20.9 µM and the TGI [51] was 54.8 µM. For the same compound, the GI50 [52] was 15.1 µM, the TGI [52] was 29 µM and the GI50 [53] was 11.1 µM. For the same compound, the TGI [53] was 70.6 µM, the GI50 [54] was 25.1 µM and the TGI [54] was 89.2 µM. For the same compound, the GI50 [55] was 15.4 µM, the TGI [55] was 62.9 µM and the GI50 [56] was 14 µM. The TGI [56] was 30.9 µM, the GI50 [57] was 17.4 µM and the TGI [57] was 31.7 µM. The GI50 [58] was 15.7 µM, the TGI [58] was 29.1 µM and the GI50 [59] was 26 µM. For the same compound, the TGI [59] was over 100 µM.
